Here are results for three molecules from patent publication US20090258883A1, “1H-Indole-Pyridinecarboxamide and 1H-Indole-Piperidinecarboxamide Compounds” (LES LABORATOIRES SERVIER, priority 2005, published 2009).

The test system of this test is tyrosine hydroxylase (TH) protein. Kind of test: Induction of tyrosine hydroxylase (TH) in LC, SN and VTA of the mouse brain. In kind it is in vivo, Balb/C mouse. The note with it: relative to mean value of control group; for amount of TH in LC section 1: LC section 1 (posterior-to-anterior); for amount of TH in LC section 1 / amount of TH, LC, total: i.p. 20 mg/kg; for amount of TH in LC section 1 / amount of TH in LC section 2 / amount of TH in LC section 3 / amount of TH in LC section 4 / amount of TH in LC section 5 / amount of TH in LC section 6 / amount of TH in LC section 7 / amount of TH in LC section 8 / amount of TH in LC section 9 / amount of TH in LC section 10 / amount of TH in LC section 11 / amount of TH, LC, total: three days after single injection; for amount of TH in LC section 2: LC section 2, i.p. 20 mg/kg; for amount of TH in LC section 3: LC section 3, i.p. 20 mg/kg; for amount of TH in LC section 4: LC section 4, i.p. 20 mg/kg; for amount of TH in LC section 5: LC section 5, i.p. 20 mg/kg; for amount of TH in LC section 6: LC section 6, i.p. 20 mg/kg; for amount of TH in LC section 7: LC section 7, i.p. 20 mg/kg; for amount of TH in LC section 8: LC section 8, i.p. 20 mg/kg; for amount of TH in LC section 9: LC section 9, i.p. 20 mg/kg; for amount of TH in LC section 10: LC section 10, i.p. 20 mg/kg; for amount of TH in LC section 11: LC section 11, i.p. 20 mg/kg. From the text:
A search is made among the compounds for those which are capable of bringing about an increase in the tyrosine hydroxylase (TH) protein in the locus coeruleus (LC), substantia nigra (SN) and ventral tegmental area (VTA) of the brain of the Balb/C mouse. The animals used are consanguinal male mice of the pure Balb/C strain (Charles River Laboratories) aged 6 weeks at the time of treatment.
The mice are given a single injection, by the intraperitoneal route, of the compound under test, dissolved in 0.04M HCl solution (corresponding control: 0.04M HCl), if the compound is sufficiently soluble, or in olive oil 90%/DMSO 10% (corresponding control: olive oil 90%/DMSO 10%) for compounds that are insoluble in an aqueous medium. The volume injected is 100 μl. The test groups comprise 10 animals.
Three days after the injection of each compound, all the animals are sacrificed by decapitation. The brains are removed and then frozen in an isopentane solution at −30° C. for 45 seconds and subsequently stored at −80° C.
Serial coronal sections 20 microns thick are then taken using a cryomicrotome. Each structure of interest is then sampled along the posterior-anterior axis of the brain by taking sections at 80-micron spacings in the case of the LC and at 80- or 160-micron spacings in the case of the VTA and SN. The limits of those structures are those described in the atlas of Franklin and Paxinos. The total proteins of each of those sections are transferred by direct collection of the sections to a nitrocellulose filter (Millipore). The amounts of TH present in each sample are measured by immunochemistry, fluorimetric detection and image analysis.

Marks after values point to notes of the source that are not given here.

Turning to `CN1CCC=C(C(=O)NN2CCc3ccccc32)C1` [Example 15, N-(2,3-dihydro-1H-indol-1-yl)-1-methyl-1,2,5,6-tetrahydropyridine-3-carboxamide], where the note is “substantia nigra, single i.p. injection”, the “TH induction in the SN” value is 91%. The “TH induction in the VTA” value (ventral tegmental area, single i.p. injection) was 88* %.

On to `CN(C)CCN1CCCC(C(=O)Nn2ccc3ccccc32)C1` (centres unmarked) [Example 22, 1-[2-(Dimethylamino)ethyl]-N-(1H-indol-1-yl)-3-piperidinecarboxamide], for which the “amount of TH in LC section 1” value stood at 79%, the “amount of TH in LC section 2” value is on record as 101%, the “amount of TH in LC section 3” value worked out at 112% and the “amount of TH in LC section 4” value came out at 98%. Further, the “amount of TH in LC section 5” value is reported as 108%, the “amount of TH in LC section 6” value amounted to 113%, the “amount of TH in LC section 7” value is 146** % and the “amount of TH in LC section 8” value is listed as 120%. Besides, the “amount of TH in LC section 9” value is 135* %; the “amount of TH in LC section 10” value is listed as 179** %; the “amount of TH in LC section 11” value is 145* %; the “amount of TH, LC, total” value is 119** %.

Regarding `O=C(Nn1ccc2ccccc21)C1CCCN(CCN2CCN(CCO)CC2)C1` (centres unmarked) [Example 26, 1-{2-[4-(2-Hydroxyethyl)-1-piperazinyl]ethyl}-N-(1H-indol-1-yl)-3-piperidinecarboxamide], the “amount of TH in LC section 1” value is reported as 152* %, the “amount of TH in LC section 2” value is given as 98%, the “amount of TH in LC section 3” value was 136** % and the “amount of TH in LC section 4” value was found to be 107%. Moreover, the “amount of TH in LC section 5” value was 154** %, the “amount of TH in LC section 6” value is 133* %, the “amount of TH in LC section 7” value is listed as 127* % and the “amount of TH in LC section 8” value came out at 96%. The “amount of TH in LC section 9” value was 132%; the “amount of TH in LC section 10” value amounted to 110%; the “amount of TH in LC section 11” value is 89%; the “amount of TH, LC, total” value is listed as 121** %.
